Laboratory results reported in US11771708B2, “Pharmaceutical carriers capable of pH dependent reconstitution and methods for making and using same” (Greenwood Brands, LLC, priority 2020, dated 2023).

Experiment: carrier reorganization in simulated gastric fluid and aspirin partitioning (Examples 2 and 3)
Format: physicochemical
Experimental: 5 grams of the composition is added to a beaker equipped with a magnetic stirrer and 50 mL of simulated gastric fluid is added with stirring. […] To this material, a 1 N solution of sodium hydroxide is added slowly to bring the pH up to about pH 7 with stirring. Raising the pH to pH 7 gives rise to a change in the carrier in a high pH environment. To this material, a 1 N solution of hydrochloride acid is added slowly until the pH is lowered to the pH of the simulated gastric fluid. It is expected that the carrier will reorganize. […] Thus, a carrier comprising a sufficient amount of a fatty acid in a triglyceride is capable of reorganization and absorption of a BAI from the low pH fluid, here simulated gastric fluid. 5 grams of the composition is added to a beaker equipped with a magnetic stirrer and 50 mL of simulated gastric fluid is added with stirring. […] To this material, a 1 N solution of sodium hydroxide is added slowly to bring the pH up to about pH 7 with stirring showing the change in the carrier in a high pH environment and the release of aspirin into the high pH environment. To this material, a 1 N solution of hydrochloride acid is added slowly until the pH is lowered to the pH of the simulated gastric fluid. […]

CC(=O)Oc1ccccc1C(=O)O [aspirin]
aspirin partitioning between reorganized carrier and simulated gastric fluid (Example 2: 10 g powdered aspirin added after oleic acid/soybean oil carrier was cycled low pH - pH 7 - low pH): partitions between the reorganized carrier and the simulated gastric fluid
aspirin partitioning between reorganized carrier and simulated gastric fluid (Example 3: carrier (oleic acid/soybean oil) and aspirin 1:1, cycled low pH - pH 7 - low pH): partitions between the reorganized carrier and the simulated gastric fluid
